Data: US20230357099A1, “PYRAZOLO [3,4-B] PYRIDINE-4-CARBOXAMIDE NITRIFICATION INHIBITOR” (EUROCHEM ANTWERPTEN, priority 2020, published 2023)
Read-outs that look alike come from different tables or passages of the source.

Key:
[1] = test system: Nitrososphaera viennensis; assay: Nitrification inhibition assay on Nitrososphaera viennensis (nitrite, Griess); assay type: cell-based, Nitrososphaera viennensis EN76T; settings: for activity at 2.5 µM: Nitrososphaera viennensis, 2.5 µM compound, structural variants outside formula (I), read-out: Relative nitrification (%) by Nitrososphaera viennensis treated with 2.5 µM compound
Description: Nitrite (NO2—) was measured using the Griess reagent (Product number: G4410, Griess reagent (modified), Sigma-Aldrich). Equal volumes of the sample or a diluted sample and the Griess reagent were mixed a transparent flat bottom multi-well plate and incubated in the dark at room temperature for 10 minutes. Absorbance values at 540 nm were measured spectrophotometrically (EnVision, Perkin Elmer®) and used to calculate the [NO2—] by use of a standard curve.
A liquid culture sample of Nitrososphaera viennensis EN76T was kindly supplied by prof. dr. Christa Schleper (University of Vienna). Cells were grown in fresh water medium (FWM) as described earlier by Tourna et al. (2011). All necessary materials were rinsed with 1 % HCl and washed at least 3 times with MilliQ water. FWM (pH 7.5 (KOH)) contained 17 mM NaCl, 3 mM MgCl2 × 2 H2O, 680 µM CaCl2 × 2 H2O, 1.47 mM KH2PO4 and 6.71 mM KCI. After autoclaving, successively 1 mL non-chelated trace element mixture (101 mM HCl, 488 µM H3BO3, 508 µM MnCl2 × 4 H2O, 803 µM CoCl2 × 6 H2O, 101 µM NiCl2 × 6 H2O, 12 µM CuCl2 × 2 H2O, 503 µM ZnSO4 × 7 H2O and 150 µM Na2MoO4 × 2 H2O), 1 mL Fe-NaEDTA (7.5 mM), 1 mL vitamin solution (20 mg/L biotin, 20 mg/L folic acid, 100 mg/L pyridoxine-HCl, 50 mg/L thiamine-HCl, 50 mg/L riboflavin, 50 mg/L nicotinic acid, 50 mg/L DL-pantothenic acid, 50 mg/L P-aminobenzoic acid, 2 g/L choline chloride and 10 mg/L vitamin B12), 2 mL NaHCO3 (1 M), 2 mL kanamycin (100 mg/mL), 2 mL carbenicillin (100 mg/mL), 3 mL NH4Cl (1 M), 10 mL HEPES buffer (1 M, pH 7.6) and 1 mL Na-pyruvate (0.1 M) were added aseptically. All stock-solutions were filter-sterilized, except the autoclaved non-chelated trace element mixture. Cultures were incubated aerobically at 42° C. without shaking in sterile 250-mL Erlenmeyer flasks or 30-mL cultivation tubes (Product number: 216-1290, Quickstart universal containers STERILIN®, VWR) filled with either 100 or 20 mL FWM and sealed with tape (Micropore™ Surgical Tape 1530-1, 3M™). Late-log phase cultures ([NO2-] ≥ 1 mM) were subcultivated by dilution (1:400) in fresh FWM.
7-day old 100 mL cultures grown in 250-mL Erlenmeyer flasks with a [NO2-] ≥ 1 mM were 5 times overconcentrated in fresh FWM by centrifugation (4000 rpm, 15 min, 5° C.) in 50 mL centrifuge tubes (Cat. No. 430829, CentriStar™ Conical Centrifuge Tubes, Corning®). Per batch, all the cultures were pooled in one sterile Schott bottle. Subsequently, 200 µl/well was dispensed at low pipetting speed in transparent flat bottom 96-well plates (Cat. No. 353072, Falcon® 96 Well Clear Microplate, Corning®) using 150 µl wide-bore tips (two steps of 100 µl) on a Tecan robot (Freedom EVO®, Tecan). 0.5 µl of 99.99 % DMSO (negative control - final concentration 0.25%) and 0.5 µl of 0.04 M PTIO (2-phenyl-4,4,5,5-tetramethylimidazoline-1-oxyl 3-oxide, positive control - final concentration 100 µM) were added manually to the first and last column respectively. Finally, 0.5 µl of candidate nitrification inhibitors (1 mM stock solutions in 99.99% DMSO - final concentration 2.5 µM) were added to the central wells using a pin tool on a Tecan robot (Freedom EVO®, Tecan). In between additions, the pins were washed in sequence with 99.5% DMSO, MilliQ water and 100% ethanol and air-dried. All plates were sealed with tape (Micropore™ Surgical Tape 1530-1, 3M™), stacked per 4 on top of a 96-well plate filled with 100 µl MilliQ per well and covered with aluminum foil. Position effects of the stacks within the incubator were considered. Plates were incubated at 42° C. without shaking. 24 h later, NO2— was measured spectrophotometrically at 540 nm (EnVision, Perkin Elmer®). […]

[2] = test system: ABIL (ammonia-binding liquid inoculum), nitrifying microbial enrichment containing both AOA and AOB; assay: Nitrification inhibition assay on ABIL (ammonium consumption); assay type: cell-based; settings: for activity at 10 µM: 10 µM compound
[3] = structural variants outside formula (I), read-out: Relative nitrification (%) by ABIL treated with 10 µM compound

| Structure (SMILES) | activity at 2.5 µM [1] [%] | activity at 10 µM [2, 3] [%] | further results |
| --- | --- | --- | --- |
| O=C(Nc1cccc2cn[nH]c12)c1csc(-c2ccccc2)n1 [Example 131] | 100 | 100 | – |
| O=C(NCCCCc1ccccc1)c1n[nH]c2ccccc12 [Example 146] | 96 | 100 | – |
| CNC(=O)C1(C(=O)Nc2cnc3c(cnn3C(C)C)c2)CC1 [Example 69] | 100 | 100 | – |
| CC(C)n1ncc2cc(CN(C)C3CCSC3)cnc21 (centres unmarked) [Example 38] | 99 | 97 | – |
| CC(C)n1ncc2cc(NC(=O)N3CCN(S(=O)(=O)N4CCCCCC4)CC3)cnc21 [Example 83] | 100 | 100 | – |
| O=S(=O)(Nc1n[nH]c2ccccc12)c1ccccc1C(F)(F)F [Example 139] | 97 | 100 | – |
| O=C(Nc1ccc2[nH]ncc2c1)C1(c2ccc(F)cc2)CC1 [Example 162] | 100 | 100 | – |
| FC(F)(F)c1c[nH]c(C2CCN(Cc3cccc4cn[nH]c34)CC2)n1 [Example 158] | 100 | 100 | – |
| CC(C)n1ncc2cc(C(=O)O)cnc21 [Example 61] | 100 | 100 | – |
| Cc1nc2c(c(C)nn2C)c(C)c1CCC(=O)NCCc1ccc2c(c1)OCO2 [Example 47] | 100 | 100 | – |
| Cc1sc2nc(CN3CCCC3)nc(Nc3ccc4cn[nH]c4c3)c2c1C [Example 95] | 96 | 97 | – |
| COCCn1ncc2ccc(NS(=O)(=O)c3ccc4c(c3)CCC4)cc21 [Example 144] | 100 | 100 | – |
| Cc1nnc(NC(=O)c2cnc3c(cnn3C(C)C)c2)s1 [Example 55] | 100 | 100 | – |
| CCN(CC1CCOC1)C(=O)c1cnc2c(cnn2C(C)C)c1 (centres unmarked) [Example 29] | 100 | 92 | – |
| CCC(CC)c1nnc(NC(=O)c2n[nH]c3ccccc23)s1 [Example 103] | 100 | 91 | – |
| Cc1cc(C)c2c(OCC(=O)N(CC(F)F)C3CC3)nn(C)c2n1 [Example 67] | 100 | 100 | – |
| Cc1cc(C)c2c(OCC(=O)N3CCOCC3(C)C)nn(C)c2n1 [Example 45] | 98 | 99 | – |
| CNC(=O)N(C)C(=O)c1cnc2c(cnn2C(C)C)c1 [Example 27] | 100 | 92 | – |
| O=C(NCCc1ccccc1)c1n[nH]c2ccccc12 [Example 98] | 100 | 89 | – |
| O=S(=O)(Nc1ccc2cn[nH]c2c1)c1ccc(S(=O)(=O)N2CCCC2)cc1 [Example 118] | 100 | 99 | – |
| Clc1ccc2c(Nc3ccc4[nH]ncc4c3)ncnc2c1 [Example 99] | 100 | 90 | – |
| COCCN1CCN(Cc2cccc3cn[nH]c23)CC1=O [Example 164] | 100 | 100 | – |
| COc1ccc(OCCC(=O)Nc2n[nH]c3ccccc23)cc1 [Example 121] | 100 | 100 | – |

| Structure (SMILES) | activity at 2.5 µM [1] [%] | activity at 10 µM [2, 3] [%] | further results |
| --- | --- | --- | --- |
| CCCC(O)CNCc1cccc2cn[nH]c12 (centres unmarked) [Example 155] | 100 | 100 | – |
| O=C(NC1CCc2ccccc21)c1n[nH]c2ccccc12 (centres unmarked) [Example 132] | 97 | 100 | – |
| Cc1nc2c(cnn2C(C)C)cc1C(=O)NC(C)C1CC1 (centres unmarked) [Example 31] | 99 | 93 | – |
| CC(O)CCN(C)S(=O)(=O)c1ccc2cn[nH]c2c1 (centres unmarked) [Example 108] | 100 | 97 | – |
| CCC(CC)C(CNC(=O)c1n[nH]c2ccccc12)N1CCOCC1 (centres unmarked) [Example 127] | 100 | 100 | – |
| Cc1ccc2[nH]nc(C(=O)N3CC[S+]([O-])C(C)(C)C3)c2c1 (centres unmarked) [Example 109] | 100 | 97 | – |
| Cc1cccc(C)c1OCC(=O)Nc1cnc2c(cnn2C(C)C)c1 [Example 71] | 94 | 100 | – |
| Cc1nn(C)c2ncc(NC(=O)CCC3CCCO3)cc12 (centres unmarked) [Example 76] | 100 | 100 | – |
| CC(C)n1ncc2cc(C(=O)Nc3ccc(F)cc3F)cnc21 [Example 33] | 100 | 94 | – |
| Cc1nn(C)c2nc(C(C)C)cc(C(=O)N(C)c3nc4ccccc4s3)c12 [Example 3] | – | – | N. viennensis - relative nitrification (%) at 0.5 µM ([1]; 0.5 µM compound, 0% = as strong as 100 µM PTIO, 100% = no inhibition): 49%; N. viennensis - relative nitrification (%) at 5 µM ([1]; 5 µM compound, 0% = as strong as 100 µM PTIO, 100% = no inhibition): 0%; N. viennensis - relative nitrification (%) at 25 µM ([1]; 25 µM compound, 0% = as strong as 100 µM PTIO, 100% = no inhibition): 0%; ABIL - relative nitrification (%) at 2 µM ([2]; 2 µM compound, 0% = as strong as 100 µM PTIO, 100% = no inhibition): -30%; activity at 10 µM ([2]; 24 h, 24 h, 0% = as strong as 100 µM PTIO, 100% = no inhibition, read-out: ABIL - relative nitrification (%) at 10 µM): -41% |
| CC(C)n1ncc2cc(C(=O)NCc3ccccc3S(=O)(=O)N3CCCCC3)cnc21 [Example 81] | 100 | 100 | – |
| Cc1nc2c(c(C)nn2C)c(C)c1CCC(=O)O [Example 36] | 94 | 97 | – |
| CS(=O)(=O)c1ccc(-c2noc(-c3cccc4[nH]ncc34)n2)cc1 [Example 135] | 100 | 100 | – |
| COCCC1(C(=O)Nc2cnc3[nH]nc(C)c3c2)CCCC1 [Example 49] | 100 | 100 | – |
| CC1(C)CN(C(=O)c2n[nH]c3ccccc23)CCS1(=O)=O [Example 117] | 100 | 99 | – |
| Cc1n[nH]c2ncc(CNCc3ccc4c(c3)OCO4)cc12 [Example 70] | 100 | 100 | – |
| Cc1nc2c(cnn2C(C)C)cc1C(=O)NC(C)c1ccccc1Br (centres unmarked) [Example 62] | 100 | 100 | – |
| CC(=O)c1ccc(OCC(=O)Nc2cnc3c(cnn3C(C)C)c2)cc1 [Example 87] | 93 | 100 | – |
| Cc1cc(-c2nc(-c3ccc4c(c3)OCO4)no2)c2c(C)nn(C)c2n1 [Example 66] | 99 | 100 | – |
| Cc1n[nH]c2nc(C(F)(F)F)cc(C(F)(F)F)c12 [Example 20] | 100 | 90 | – |
| O=C(c1n[nH]c2ccccc12)N1CCc2ccc(F)cc21 [Example 141] | 93 | 100 | – |
| O=C1NC(=S)S/C1=C\c1cccc2cn[nH]c12 [Example 124] | 99 | 100 | – |
| CCC(CC)CN(CC)C(=O)c1cnc2c(c1)c(C)nn2C [Example 54] | 96 | 100 | – |
